According to PubChem BioAssay AID256 (DTP/NCI, 2004):
Values joined by “and” are separate entries in the source; they are usually repeats but may differ in a detail not shown here. Equal values may be shown once. Toxic doses and inconclusive results are not listed. How the source made its calls: active means survival T/C of 150% or more; inactive means T/C below 125% in these data.

Tested on: CD2F1 mice, L1210 leukemia ip, survival T/C
Experiment: NCI In Vivo Anticancer Drug Screen. Data for tumor model L1210 Leukemia (intraperitoneal) in CD2F1 (CDF1) mice
Details: higher = longer survival
How it was run: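 Ratio T/C, where T is the treated-group value and C the vehicle-dosed control value, from mice implanted with a transplantable tumor.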

[1] = endpoint: mean survival time, dose: 100.0 mg/kg/injection, schedule: Q01DX001 (ip), vehicle: saline with Tween-80
[2] = endpoint: mean survival time, dose: 200.0 mg/kg/injection, schedule: Q01DX001 (ip), vehicle: saline with Tween-80
[3] = endpoint: mean survival time, dose: 400.0 mg/kg/injection, schedule: Q01DX001 (ip), vehicle: saline with Tween-80
[4] = endpoint: mean survival time, dose: 100.0 mg/kg/injection, schedule: Q04DX003 (ip), vehicle: saline with Tween-80
[5] = endpoint: mean survival time, dose: 200.0 mg/kg/injection, schedule: Q04DX003 (ip), vehicle: saline with Tween-80
[6] = endpoint: mean survival time, dose: 400.0 mg/kg/injection, schedule: Q04DX003 (ip), vehicle: saline with Tween-80
[7] = endpoint: mean survival time, dose: 75.0 mg/kg/injection, schedule: Q01DX001 (ip), vehicle: saline
[8] = endpoint: mean survival time, dose: 150.0 mg/kg/injection, schedule: Q01DX001 (ip), vehicle: saline
[9] = endpoint: mean survival time, dose: 100.0 mg/kg/injection, schedule: Q01DX001 (ip), vehicle: saline
[10] = endpoint: mean survival time, dose: 100.0 mg/kg/injection, schedule: Q04DX003 (ip), vehicle: saline
[11] = endpoint: mean survival time, dose: 200.0 mg/kg/injection, schedule: Q01DX001 (ip), vehicle: saline
[12] = endpoint: mean survival time, dose: 200.0 mg/kg/injection, schedule: Q04DX003 (ip), vehicle: saline
[13] = endpoint: mean survival time, dose: 400.0 mg/kg/injection, schedule: Q01DX001 (ip), vehicle: saline
[14] = endpoint: mean survival time, dose: 400.0 mg/kg/injection, schedule: Q04DX003 (ip), vehicle: saline
[15] = endpoint: mean survival time, dose: 100.0 mg/kg/injection, schedule: Q01DX009 (ip), vehicle: saline with Tween-80
[16] = endpoint: mean survival time, dose: 25.0 mg/kg/injection, schedule: Q01DX009 (ip), vehicle: Klucel (hydroxypropylcellulose) (HPC)
[17] = endpoint: mean survival time, dose: 100.0 mg/kg/injection, schedule: Q04DX002 (ip), vehicle: saline with Tween-80
[18] = endpoint: mean survival time, dose: 200.0 mg/kg/injection, schedule: Q04DX002 (ip), vehicle: saline with Tween-80
[19] = endpoint: mean survival time, dose: 400.0 mg/kg/injection, schedule: Q04DX002 (ip), vehicle: saline with Tween-80

Measured: T/C

COC(=O)C1CCC2C3CC=C4CC(O)CCC4(C)C3CCC12C (stereo not drawn)
inactive: [1] 98 % of control | [2] 93 % of control | [3] 93 % of control

Cc1ccc(N=Nc2c(N)nc(N)nc2N)cc1C
inactive: [4] 96 % of control | [5] 102 % of control | [6] 108 % of control

CC(O)C1CCC2C3CCC4CC(O)CCC4(C)C3CCC12C (stereo not drawn)
inactive: [4] 95 % of control | [5] 96 % of control | [6] 101 % of control

CCC(CC)=NN(C)C
inactive: [7] 100 % of control | [8] 96 % of control | endpoint: mean survival time, dose: 300.0 mg/kg/injection, schedule: Q01DX001 (ip), vehicle: saline 96 % of control

NC(CS(=O)(=O)O)c1ccccc1 (stereo not drawn)
inactive: [9] 110 % of control | [10] 96 % of control | [11] 110 % of control | [12] 98 % of control | [13] 110 % of control | [14] 97 % of control

COC(=N)/C(C#N)=N/C1OCC(O)C(O)C1O (stereo not drawn)
inactive: endpoint: mean survival time, dose: 12.5 mg/kg/injection, schedule: Q01DX005 (ip), vehicle: other 101 % of control | endpoint: mean survival time, dose: 25.0 mg/kg/injection, schedule: Q01DX005 (ip), vehicle: other 102 % of control | endpoint: mean survival time, dose: 50.0 mg/kg/injection, schedule: Q01DX005 (ip), vehicle: other 102 % of control | endpoint: mean survival time, dose: 100.0 mg/kg/injection, schedule: Q01DX005 (ip), vehicle: other 102 % of control | endpoint: mean survival time, dose: 200.0 mg/kg/injection, schedule: Q01DX005 (ip), vehicle: other 101 % of control

CC(NC(=O)c1cnc2ccccc2n1)C(=O)NC(C(=O)O)C(C)C (stereo not drawn)
inactive: [9] 100 % of control | [11] 100 % of control | [13] 102 % of control

COc1ccc(C2C3CN(C4CCCCC4)C(=O)C3NN2C(C)=O)cc1 (stereo not drawn)
inactive: [15] 91 % of control | endpoint: mean survival time, dose: 200.0 mg/kg/injection, schedule: Q01DX009 (ip), vehicle: saline with Tween-80 89 % of control | endpoint: mean survival time, dose: 400.0 mg/kg/injection, schedule: Q01DX009 (ip), vehicle: saline with Tween-80 89 % of control

O=C1/C(=C/c2ccc([N+](=O)[O-])cc2)CCc2ccccc21
inactive: endpoint: mean survival time, dose: 12.5 mg/kg/injection, schedule: Q01DX009 (ip), vehicle: Klucel (hydroxypropylcellulose) (HPC) 97 % of control | [16] 96 % of control | endpoint: mean survival time, dose: 50.0 mg/kg/injection, schedule: Q01DX009 (ip), vehicle: Klucel (hydroxypropylcellulose) (HPC) 94 % of control | endpoint: mean survival time, dose: 100.0 mg/kg/injection, schedule: Q01DX009 (ip), vehicle: Klucel (hydroxypropylcellulose) (HPC) 92 % of control | endpoint: mean survival time, dose: 200.0 mg/kg/injection, schedule: Q01DX009 (ip), vehicle: Klucel (hydroxypropylcellulose) (HPC) 91 % of control

BrC/C(=N\N1CCCCCC1)c1ccc(Br)cc1
inactive: [9] 94 % of control | [11] 92 % of control | [13] 92 % of control

CCOC(=O)Nc1cc(NC(c2ccccc2)c2ccccc2)c([N+](=O)[O-])c(Cl)n1
inactive: endpoint: mean survival time, dose: 100.0 mg/kg/injection, schedule: Q01DX001 (ip), vehicle: carboxymethylcellulose (CMC) 95 % of control | endpoint: mean survival time, dose: 200.0 mg/kg/injection, schedule: Q01DX001 (ip), vehicle: carboxymethylcellulose (CMC) 93 % of control | endpoint: mean survival time, dose: 400.0 mg/kg/injection, schedule: Q01DX001 (ip), vehicle: carboxymethylcellulose (CMC) 91 % of control

CN(C)C(=O)c1ccc[n+](CC(=O)Nc2ccccc2)c1
inactive: [10] 103 % of control | [12] 101 % of control | [14] 103 % of control

[Pd+2].[S-]CC[S-]
inactive: endpoint: mean survival time, dose: 3.13 mg/kg/injection, schedule: Q04DX003 (ip), vehicle: distilled water + Tween-80 101 % of control | endpoint: mean survival time, dose: 6.25 mg/kg/injection, schedule: Q04DX003 (ip), vehicle: distilled water + Tween-80 102 % of control | endpoint: mean survival time, dose: 12.5 mg/kg/injection, schedule: Q04DX003 (ip), vehicle: distilled water + Tween-80 101 % of control | endpoint: mean survival time, dose: 25.0 mg/kg/injection, schedule: Q04DX003 (ip), vehicle: distilled water + Tween-80 104 % of control | endpoint: mean survival time, dose: 50.0 mg/kg/injection, schedule: Q04DX003 (ip), vehicle: distilled water + Tween-80 95 % of control | endpoint: mean survival time, dose: 100.0 mg/kg/injection, schedule: Q04DX003 (ip), vehicle: distilled water + Tween-80 95 % of control | endpoint: mean survival time, dose: 200.0 mg/kg/injection, schedule: Q04DX003 (ip), vehicle: distilled water + Tween-80 95 % of control

COc1cc2cccnc2c2[nH]cc(C(=O)O)c(=O)c12
inactive: [9] 107 % of control | [15] 97 % of control | [11] 100 % of control | [13] 97 % of control

Cc1cccc(NC(=O)/C=C/c2ccccc2)c1C
inactive: [17] 98 % of control | [18] 94 % of control | [19] 94 % of control

O=c1scc(-c2ccc([N+](=O)[O-])cc2)s1
inactive: endpoint: mean survival time, dose: 12.5 mg/kg/injection, schedule: Q04DX003 (ip), vehicle: Klucel (hydroxypropylcellulose) (HPC) 104 % of control | endpoint: mean survival time, dose: 25.0 mg/kg/injection, schedule: Q04DX003 (ip), vehicle: Klucel (hydroxypropylcellulose) (HPC) 91 % of control

CCOc1ccc(CCN2CC34C=CC(O3)C(C(=O)O)C4C2=O)cc1OC (stereo not drawn)
inactive: [17] 95 % of control | [18] 95 % of control | [19] 91 % of control

CN(C)N=Nc1ccc([N+](=O)[O-])cc1C(N)=O
inactive: endpoint: mean survival time, dose: 18.8 mg/kg/injection, schedule: Q01DX009 (ip), vehicle: Klucel (hydroxypropylcellulose) (HPC) 95 % of control and 101 % of control | endpoint: mean survival time, dose: 37.5 mg/kg/injection, schedule: Q01DX009 (ip), vehicle: Klucel (hydroxypropylcellulose) (HPC) 96 % of control and 110 % of control | endpoint: mean survival time, dose: 75.0 mg/kg/injection, schedule: Q01DX009 (ip), vehicle: Klucel (hydroxypropylcellulose) (HPC) 101 % of control and 110 % of control | endpoint: mean survival time, dose: 300.0 mg/kg/injection, schedule: Q01DX009 (ip), vehicle: Klucel (hydroxypropylcellulose) (HPC) 89 % of control

CC(C)NCC(O)COc1ccc(O)c(O)c1 (stereo not drawn)
inactive: endpoint: median survival time, dose: 12.5 mg/kg/injection, schedule: Q01DX009 (ip), vehicle: saline 101 % of control | endpoint: median survival time, dose: 25.0 mg/kg/injection, schedule: Q01DX009 (ip), vehicle: saline 97 % of control and 101 % of control | endpoint: median survival time, dose: 50.0 mg/kg/injection, schedule: Q01DX009 (ip), vehicle: saline 98 % of control and 107 % of control | endpoint: median survival time, dose: 100.0 mg/kg/injection, schedule: Q01DX009 (ip), vehicle: saline 107 % of control and 112 % of control | endpoint: median survival time, dose: 200.0 mg/kg/injection, schedule: Q01DX009 (ip), vehicle: saline 90 % of control

Nc1cccc(CC(=O)Nc2cccc(S(=O)(=O)F)c2)c1
inactive: [1] 96 % of control | [2] 95 % of control | [3] 90 % of control

O=C(Nc1ccccc1)Nc1nnnc2ccccc12
inactive: [4] 101 % of control | [5] 90 % of control | [6] 101 % of control

CC(=O)Nc1c(Cl)c(Cl)c2c(c1Cl)Cc1cc(Br)ccc1-2
inactive: [16] 109 % of control

c1ccc(SCN2CCN(CSc3ccccc3)CC2)cc1
inactive: endpoint: mean survival time, dose: 100.0 mg/kg/injection, schedule: Q01DX009 (ip), vehicle: saline 91 % of control

O=c1[nH]c2ccccc2nc1CBr
inactive: endpoint: mean survival time, dose: 3.75 mg/kg/injection, schedule: Q01DX009 (ip), vehicle: saline with Tween-80 98 % of control | endpoint: mean survival time, dose: 7.5 mg/kg/injection, schedule: Q01DX009 (ip), vehicle: saline with Tween-80 110 % of control | endpoint: mean survival time, dose: 12.5 mg/kg/injection, schedule: Q01DX009 (ip), vehicle: saline with Tween-80 113 % of control | endpoint: mean survival time, dose: 15.0 mg/kg/injection, schedule: Q01DX009 (ip), vehicle: saline with Tween-80 104 % of control

CCOC(=O)c1cc(-c2ccc(Cl)cc2)nc2c1ccc1ccccc12
inactive: [9] 100 % of control | [11] 96 % of control | [13] 108 % of control

Cc1[nH]c2ccc([N+](=O)[O-])cc2c1CN(C)C
inactive: [7] 96 % of control | [8] 100 % of control
